Molecular target: T1, P2X7 (UniProt Q99572)
T1 sequence (Q99572 1-595): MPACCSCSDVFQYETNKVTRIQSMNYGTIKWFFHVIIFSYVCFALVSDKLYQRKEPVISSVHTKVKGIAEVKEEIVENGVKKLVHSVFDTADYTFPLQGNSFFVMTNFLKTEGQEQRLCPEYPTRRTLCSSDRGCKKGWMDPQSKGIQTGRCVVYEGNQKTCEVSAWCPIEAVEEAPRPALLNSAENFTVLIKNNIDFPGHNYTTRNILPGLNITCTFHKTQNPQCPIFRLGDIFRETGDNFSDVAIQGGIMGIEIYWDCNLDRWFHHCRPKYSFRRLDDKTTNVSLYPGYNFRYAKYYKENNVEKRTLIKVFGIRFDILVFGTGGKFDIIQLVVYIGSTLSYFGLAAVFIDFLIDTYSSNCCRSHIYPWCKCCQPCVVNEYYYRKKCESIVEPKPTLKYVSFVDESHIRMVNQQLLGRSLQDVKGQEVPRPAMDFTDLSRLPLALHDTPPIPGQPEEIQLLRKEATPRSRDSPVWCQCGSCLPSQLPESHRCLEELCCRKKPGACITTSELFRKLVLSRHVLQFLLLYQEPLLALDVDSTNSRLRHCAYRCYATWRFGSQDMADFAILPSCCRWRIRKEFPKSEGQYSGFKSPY
Assay: pIC50 values for P2X7 (Table 1)
Format: cell-based
Procedure, shortened: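 Fluo-3-loaded 1321N1 cells expressing human P2X7 or HEK293 cells expressing rat P2X7, preincubated 20 min at room temperature with antagonist in HBSS/Hepes/probenecid buffer with 2 mM CaCl2. BzATP agonist at 100 μM final (human) or 5 μM final (rat); fluorescence read 5 min, peak normalized to 5 μM ionomycin response.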

| SMILES | pIC50 |
| --- | --- |
| O=C1C=CN(C(=O)Nc2cc(CO)c(Cl)cc2Br)[C@H](c2ccc(F)cc2)C1 [Compound 98, (S)-2-(4-Fluoro-phenyl)-4-oxo-3,4-dihydro-2H-pyridine-1-carboxylic acid (2-bromo-4-chloro-5-hydroxymethyl-phenyl)-amide] | 7.475 |
| Cc1cc(C)c(Br)c(NC(=O)N2C=CC(=O)C[C@H]2c2ccc(F)cc2)c1 [Compound 99, (S)-2-(4-Fluoro-phenyl)-4-oxo-3,4-dihydro-2H-pyridine-1-carboxylic acid (2-bromo-3,5-dimethyl-phenyl)-amide] | 7.98 |
| COc1ccc(NC(=O)N2C=CC(=O)C[C@H]2c2ccc(F)cc2)c(C)c1 [Compound 100, (S)-2-(4-Fluoro-phenyl)-4-oxo-3,4-dihydro-2H-pyridine-1-carboxylic acid (4-methoxy-2-methyl-phenyl)-amide] | 7.05 |
| Cn1ccc2ccc(NC(=O)N3C=CC(=O)C[C@H]3c3ccc(F)cc3)cc21 [Compound 101, (S)-2-(4-Fluoro-phenyl)-4-oxo-3,4-dihydro-2H-pyridine-1-carboxylic acid (1-methyl-1H-indol-6-yl)-amide] | 7.57 |
| Cc1cc2cccnc2cc1NC(=O)N1C=CC(=O)C[C@H]1c1ccc(F)cc1 [Compound 102, (S)-2-(4-Fluoro-phenyl)-4-oxo-3,4-dihydro-2H-pyridine-1-carboxylic acid (6-methyl-quinolin-7-yl)-amide] | 6.56 |
| Cc1ccc(NC(=O)N2C=CC(=O)C[C@H]2c2ccc(F)cc2)c(C)c1 [Compound 103, (S)-2-(4-Fluoro-phenyl)-4-oxo-3,4-dihydro-2H-pyridine-1-carboxylic acid (2,4-dimethyl-phenyl)-amide] | 7.415 |
| Cc1cc(C)cc(NC(=O)N2C=CC(=O)C[C@H]2c2ccc(F)cc2)c1 [Compound 104, (S)-2-(4-Fluoro-phenyl)-4-oxo-3,4-dihydro-2H-pyridine-1-carboxylic acid (3,5-dimethyl-phenyl)-amide] | 7.655 |
| COc1ccccc1NC(=O)N1C=CC(=O)CC1c1ccc(F)cc1 (stereo not shown) [Compound 105, 2-(4-Fluoro-phenyl)-4-oxo-3,4-dihydro-2H-pyridine-1-carboxylic acid (2-methoxy-phenyl)-amide] | 5.91 |
| O=C1C=CN(C(=O)Nc2ccc3ncccc3c2Br)[C@H](c2ccc(F)cc2)C1 [Compound 106, (S)-2-(4-Fluoro-phenyl)-4-oxo-3,4-dihydro-2H-pyridine-1-carboxylic acid (5-bromo-quinolin-6-yl)-amide] | 7.785 |
| Cc1cc2nccnc2cc1NC(=O)N1C=CC(=O)C[C@H]1c1ccc(F)cc1 [Compound 107, (S)-2-(4-Fluoro-phenyl)-4-oxo-3,4-dihydro-2H-pyridine-1-carboxylic acid (7-methyl-quinoxalin-6-yl)-amide] | 7.095 |
| Cc1cc(NC(=O)N2C=CC(=O)CC2c2ccc(F)cc2)n(C)n1 (stereo not shown) [Compound 108, 2-(4-Fluoro-phenyl)-4-oxo-3,4-dihydro-2H-pyridine-1-carboxylic acid (2,5-dimethyl-2H-pyrazol-3-yl)-amide] | 6.043 |
| COc1cccc(NC(=O)N2C=CC(=O)CC2c2ccc(F)cc2)c1C (stereo not shown) [Compound 109, 2-(4-Fluoro-phenyl)-4-oxo-3,4-dihydro-2H-pyridine-1-carboxylic acid (3-methoxy-2-methyl-phenyl)-amide] | 8.433 |
| COc1cccc(NC(=O)N2C=CC(=O)CC2c2ccc(F)cc2)c1OC (stereo not shown) [Compound 110, 2-(4-Fluoro-phenyl)-4-oxo-3,4-dihydro-2H-pyridine-1-carboxylic acid (2,3-dimethoxy-phenyl)-amide] | 6.89 |
| Cc1cc(F)c(OCCO)cc1NC(=O)N1C=CC(=O)C[C@H]1c1ccc(F)cc1 [Compound 111, (S)-2-(4-Fluoro-phenyl)-4-oxo-3,4-dihydro-2H-pyridine-1-carboxylic acid [4-fluoro-5-(2-hydroxy-ethoxy)-2-methyl-phenyl]-amide] | 8.12 |
| O=C1C=CN(C(=O)Nc2cc3[nH]c(=O)[nH]c3cc2Br)C(c2ccc(F)cc2)C1 (stereo not shown) [Compound 112, 2-(4-Fluoro-phenyl)-4-oxo-3,4-dihydro-2H-pyridine-1-carboxylic acid (6-bromo-2-oxo-2,3-dihydro-1H-benzoimidazol-5-yl)-amide] | 5.93 |
| Cc1nc2cc(NC(=O)N3C=CC(=O)CC3c3ccc(F)cc3)ccc2s1 (stereo not shown) [Compound 113, 2-(4-Fluoro-phenyl)-4-oxo-3,4-dihydro-2H-pyridine-1-carboxylic acid (2-methyl-benzothiazol-5-yl)-amide] | 5.505 |
| Cc1cc(Cl)c(OCCCO)cc1NC(=O)N1C=CC(=O)C[C@H]1c1ccc(F)cc1 [Compound 114, (S)-2-(4-Fluoro-phenyl)-4-oxo-3,4-dihydro-2H-pyridine-1-carboxylic acid [4-chloro-5-(3-hydroxy-propoxy)-2-methyl-phenyl]-amide] | 7.74 |
| COc1cc(NC(=O)N2C=CC(=O)CC2c2ccc(F)cc2)c(N(C)C)cc1OC (stereo not shown) [Compound 115, 2-(4-Fluoro-phenyl)-4-oxo-3,4-dihydro-2H-pyridine-1-carboxylic acid (2-dimethylamino-4,5-dimethoxy-phenyl)-amide] | 5.915 |
| Cn1ccc2cc(NC(=O)N3C=CC(=O)C[C@H]3c3ccc(F)cc3)ccc21 [Compound 116, (S)-2-(4-Fluoro-phenyl)-4-oxo-3,4-dihydro-2H-pyridine-1-carboxylic acid (1-methyl-1H-indol-5-yl)-amide] | 7.405 |
| O=C1C=CN(C(=O)Nc2ccc3ncsc3c2)C(c2ccc(F)cc2)C1 (stereo not shown) [Compound 117, 2-(4-Fluoro-phenyl)-4-oxo-3,4-dihydro-2H-pyridine-1-carboxylic acid benzothiazol-6-ylamide] | 6.31 |
| Cc1cc(Cl)c(CO)cc1NC(=O)N1C=CC(=O)C[C@H]1c1ccc(F)cc1 [Compound 118, (S)-2-(4-Fluoro-phenyl)-4-oxo-3,4-dihydro-2H-pyridine-1-carboxylic acid (4-chloro-5-hydroxymethyl-2-methyl-phenyl)-amide] | 7.735 |
| O=C1C=CN(C(=O)Nc2ccc(OC(F)(F)F)cc2Br)[C@H](c2ccc(F)cc2)C1 [Compound 119] | 6.175 |
| CN(C)C(=O)COc1cc(NC(=O)N2C=CC(=O)C[C@H]2c2ccc(F)cc2)c(Br)cc1Cl [Compound 120, (S)-2-(4-Fluoro-phenyl)-4-oxo-3,4-dihydro-2H-pyridine-1-carboxylic acid (2-bromo-4-chloro-5-dimethylcarbamoylmethoxy-phenyl)-amide] | 6.95 |
| COCCN(C)Cc1cc(NC(=O)N2C=CC(=O)C[C@H]2c2ccc(F)cc2)c(C)cc1Cl [Compound 121, (S)-2-(4-Fluoro-phenyl)-4-oxo-3,4-dihydro-2H-pyridine-1-carboxylic acid (4-chloro-5-{[(2-methoxy-ethyl)-methyl-amino]-methyl}-2-methyl-phenyl)-amide] | 6.43 |
| Cc1cc(Cl)c(CNC(=O)OC(C)(C)C)cc1NC(=O)N1C=CC(=O)C[C@H]1c1ccc(F)cc1 [Compound 122, (2-Chloro-5-{[(S)-2-(4-fluoro-phenyl)-4-oxo-3,4-dihydro-2H-pyridine-1-carbonyl]-amino}-4-methyl-benzyl)-carbamic acid tert-butyl ester] | 5.995 |

Source: patent US8153809B2, “Dihydropyridone ureas as P2X7 modulators” (Roche Palo Alto LLC, priority 2008, dated 2012)
